Laboratory results reported in PubChem BioAssay AID743402 (Broad Institute, 2014).

system: FRT CFTR-F508del YFP iodide quenching, 24 h; assay: restoration of mutant CFTR halide transport – FRT cells, YFP quenching, cherry-pick, dose response (AID 743402); settings: not given;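 note: compounds act as correctors raising surface CFTR-F508del before acute activation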

Point of comparison: `CC1(C)OC(c2ccccc2)=C/C(=C/C=C2C(=O)NC(=O)NC2=O)O1`, AC35 13.4 µM. Against it:
- CC1(C)OC(c2ccccc2)=C/C(=C/C=C2C(=O)NC(=S)NC2=O)O1 — 4-fold lower, 3.34 µM
- COC1C(C)OC(OC2CC(C)(O)Cc3cc4c(c(O)c32)C(=O)c2c(O)cc3c(c2C4=O)OC2OC3(C)C(O)C(N(C)C)C2O)C(OC)C1(C)OC (stereo not given) — 5.6-fold lower, 2.39 µM
- O=[N+]([O-])c1ccc(N2CCOCC2)c2c1no[n+]2[O-] — within 1.5-fold, 10.4 µM

same assay, conditions: channel opened with forskolin and a potentiator

Point of comparison: `CCN(CC)c1ccc(/C=C(/C#N)c2nc3ccc(C)cc3[nH]2)c(OC(C)C)c1`, AC35 0.796 µM. Against it:
- Cc1ccc(S(=O)(=O)Nc2ccc3c(c2)CC(=O)N([C@@H](C)CO)C[C@@H](C)[C@@H](CN(C)Cc2ccc(Cl)c(Cl)c2)O3)cc1 — 28-fold higher, 22.6 µM
- CN1c2ccc(-c3ccc(F)cc3)cc2[C@H]2[C@H](CCN2S(=O)(=O)c2ccc(F)cc2)[C@H]1CO — 28-fold higher, 21.9 µM
- COc1ccc([C@H]2CC(=O)C=C(c3ccc(OC)cc3OC)C2)cc1 — 31-fold higher, 25 µM
- CC(=O)Nc1sc2c(c1-c1nc3ccccc3s1)CN(C(C)C)CC2 — 13-fold higher, 10.7 µM
- O=C(C1CC1)N1CC(=O)N2[C@H](CO)[C@@H](c3ccc(-c4ccccc4F)cc3)[C@@H]2C1 — 25-fold higher, 19.7 µM
- C=CCN1C(=O)/C(=C/C=C2/N(CC)c3ccc(S(=O)(=O)N(C)C)cc3N2CC)SC1=S — 1.6-fold higher, 1.3 µM
- C[C@H]1CN([C@@H](C)CO)S(=O)(=O)c2ccc(C#Cc3ccc(F)cc3)cc2O[C@H]1CN(C)C(=O)NC1CCCCC1 — 28-fold higher, 22.6 µM
- O=c1ccc2[n+]([O-])c3ccc(O)cc3oc-2c1 — 14-fold higher, 10.9 µM
- CN(C)CCCNc1c2ccccc2nc2ccccc12 — 4.5-fold higher, 3.57 µM
- COc1ccc(OC)c(-c2nnc3n2N=C(c2ccc(OC)c(OC)c2)CS3)c1 — 6.7-fold higher, 5.34 µM
- CCN1/C(=C/c2ccc3cc(C)cc(C)c3[n+]2CC)Sc2cc(C)ccc21 — within 1.5-fold, 1.05 µM
- C[C@@H]1CCCCO[C@H](CN(C)Cc2ccc(Cl)c(Cl)c2)[C@@H](C)CN([C@@H](C)CO)C(=O)c2cc(NS(=O)(=O)c3ccc(Cl)cc3)ccc2O1 — 30-fold higher, 23.5 µM
- CN1C(=O)c2cccc3c(N)ccc(c23)C1=O — 3.3-fold higher, 2.62 µM
- COc1ccc(-c2cnc3c(NC=O)cc(-c4ccccc4)cn23)cc1OC — 13-fold higher, 10.4 µM
- COC(=O)c1ccccc1-c1c2ccc(=N)cc-2oc2cc(N)ccc12 — 24-fold lower, 0.0334 µM
- COc1cccc2c1C(=O)c1c(O)c3c(c(O)c1C2=O)C[C@@](O)(C(C)=O)C[C@@H]3O[C@H]1C[C@H](N)[C@H](O)[C@H](C)O1 — within 1.5-fold, 0.856 µM
- Nc1c2ccccc2nc2ccccc12 — 16-fold higher, 12.9 µM
- O=C1c2cccc(NCCCNCCO)c2C(=O)c2cccc(NCCCNCCO)c21 — 6.5-fold higher, 5.19 µM
- CNc1c2cccc(C)c2nc2c(C(=O)NCCN(C)C)cccc12 — 13-fold higher, 10.5 µM
- CC(=NNC(=O)c1ccncc1)c1ccc2ccccc2c1O — 5.4-fold higher, 4.3 µM
- CC(C)n1cc(/C=C/c2cc[n+](C)cc2)c2ccccc21 — within 1.5-fold, 0.752 µM
- COc1cccc2c1C(=O)c1c(O)c3c(c(O)c1C2=O)CC(O)(C(=O)CO)CC3OC1CC(N(C)C)C(O)C(C)O1 (stereo not given) — 1.7-fold higher, 1.37 µM
- CN(C)/C=C1\C=C2C(=O)c3ccccc3N2C1=O — 2.8-fold higher, 2.19 µM
- O=c1c2ccccc2sc2c(CO)ccc(NCCN3CCCCC3)c12 — 27-fold higher, 21.8 µM
- COc1ccc2noc3c2c1C(=O)c1ccccc1-3 — 6.9-fold higher, 5.51 µM
- O=c1ccc2c(-c3ccccc3)c3ccc(O)cc3oc-2c1 — within 1.5-fold, 1.11 µM
- CCN(CC)CCCNc1ccc2ncn3c4ccc(O)cc4c(=O)c1c23 — 5-fold higher, 4.01 µM
- CCCOc1cc(N(CC)CC)ccc1/C=C(/C#N)c1nc2ccc(C)cc2[nH]1 — 1.6-fold lower, 0.505 µM
- CC(C)Nc1nc(Nc2ccc(Cl)cc2F)c2sccc2n1 — 16-fold higher, 12.7 µM
- Clc1ccc(Nc2ccc3ccccc3n2)cc1 — 5.7-fold higher, 4.5 µM
- Cn1c(=O)c(NC2CCCCC2)c2c3c(cccc31)C(=O)c1ccccc1-2 — within 1.5-fold, 1.05 µM
- COc1cc(OC)c(-c2c3cc(O)c(=O)cc-3oc3cc(O)c(O)cc23)cc1OC — 5.2-fold higher, 4.15 µM
- O=C1c2cccc3c(N4CCCCC4)ccc(c23)C(=O)N1c1cccc(O)c1 — 5.6-fold higher, 4.44 µM
- C=CCCC(=O)Nc1nc(C)c(-c2csc(Nc3cc(OC)ccc3OC)n2)s1 — 5.7-fold higher, 4.51 µM
- CN1/C(=C\C=C2/SC(=S)NC2=O)C(C)(C)c2ccccc21 — 3.3-fold higher, 2.6 µM
